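These data come from cells grown in 96-well plates and exposed to compound for 48 hours at five concentrations. GI50 is the concentration that inhibits growth by half.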 Active and inactive are the calls of the source. No stated cut-off is given here; in the data, active = GI50 up to about 1.1 µM and inactive = higher.
Experiments:
Experiment in all cases: NCI anticancer screen, dose series, 48 h
SR = tested on: SR
U-251 = tested on: U-251
MDA-N = tested on: MDA-N
CAKI-1 = tested on: CAKI-1
SK-OV-3 = tested on: SK-OV-3
MCF7 = tested on: MCF7
LOX IMVI = tested on: LOX IMVI
NCI-H460 = tested on: NCI-H460
EKVX = tested on: EKVX
UO-31 = tested on: UO-31
HCT-15 = tested on: HCT-15
SF-539 = tested on: SF-539
SW-620 = tested on: SW-620
DU-145 = tested on: DU-145
NCI-H226 = tested on: NCI-H226
786-0 = tested on: 786-0
MOLT-4 = tested on: MOLT-4
IGROV-1 = tested on: IGROV-1
HOP-92 = tested on: HOP-92
T47D = tested on: T47D

SMILES | GI50 (SR) | GI50 (U-251) | GI50 (MDA-N) | GI50 (CAKI-1) | GI50 (SK-OV-3) | GI50 (MCF7) | GI50 (LOX IMVI) | GI50 (NCI-H460) | GI50 (EKVX) | GI50 (UO-31) | GI50 (HCT-15) [µM] | GI50 (SF-539) | GI50 (SW-620) | GI50 (DU-145) | GI50 (NCI-H226) | GI50 (786-0) | GI50 (MOLT-4) | GI50 (IGROV-1) | GI50 (HOP-92) | GI50 (T47D)
Nc1nc2cc3nc(N)c(N)nc3cc2nc1N | 71.8 µM (inactive) | > 100 µM (inactive) | > 100 µM (inactive) | > 100 µM (inactive) | > 100 µM (inactive) | > 100 µM (inactive) | > 100 µM (inactive) | > 100 µM (inactive) | > 100 µM (inactive) | > 100 µM (inactive) | > 100 | > 100 µM (inactive) | > 100 µM (inactive) | > 100 µM (inactive) | > 100 µM (inactive) | > 100 µM (inactive) | 92.9 µM (inactive) | > 100 µM (inactive) | – | –
COc1cc2cccc(/N=C\c3ccccc3Cl)c2cc1OC | 3.94 µM (inactive) | 95.9 µM (inactive) | – | > 100 µM (inactive) | > 100 µM (inactive) | – | 70.3 µM (inactive) | > 100 µM (inactive) | > 100 µM (inactive) | > 100 µM (inactive) | 25.5 | > 100 µM (inactive) | 26.5 µM (inactive) | – | > 100 µM (inactive) | > 100 µM (inactive) | > 100 µM (inactive) | > 100 µM (inactive) | > 100 µM (inactive) | –
CCOC(=O)N1N=NC2C3OC(C[C@@]3(C#N)OC(C)=O)[C@H]21 (stereo not given in full) | > 100 µM (inactive) | > 100 µM (inactive) | – | > 100 µM (inactive) | > 100 µM (inactive) | – | > 100 µM (inactive) | > 100 µM (inactive) | > 100 µM (inactive) | > 100 µM (inactive) | > 100 | > 100 µM (inactive) | > 100 µM (inactive) | – | > 100 µM (inactive) | > 100 µM (inactive) | > 100 µM (inactive) | > 100 µM (inactive) | > 100 µM (inactive) | –
Nc1nncc2c1c(Br)cn2C1OC(CO)C(O)C1O (stereo not given) | 2.99 µM (inactive) | > 70.6 µM (inactive) | – | 3.21 µM (inactive) | > 96.6 µM (inactive) | – | 5.74 µM (inactive) | 28.8 µM (inactive) | 25.6 µM (inactive) | > 37.9 µM (inactive) | 4.23 | 30.5 µM (inactive) | 5.69 µM (inactive) | – | > 100 µM (inactive) | 21.1 µM (inactive) | 2.91 µM (inactive) | 25.1 µM (inactive) | 8.63 µM (inactive) | –
C=C=C(Sc1ccccc1)C(C)(C)O | > 100 µM (inactive) | > 100 µM (inactive) | – | – | > 100 µM (inactive) | – | > 100 µM (inactive) | > 100 µM (inactive) | – | > 100 µM (inactive) | > 100 | > 100 µM (inactive) | > 100 µM (inactive) | > 100 µM (inactive) | > 100 µM (inactive) | > 100 µM (inactive) | > 100 µM (inactive) | > 100 µM (inactive) | > 100 µM (inactive) | –
CCOC(=O)C(C(=O)Cc1ccccc1)c1ccccc1 (stereo not given) | > 100 µM (inactive) | > 100 µM (inactive) | – | > 100 µM (inactive) | > 100 µM (inactive) | – | > 100 µM (inactive) | > 100 µM (inactive) | > 100 µM (inactive) | > 100 µM (inactive) | > 100 | > 100 µM (inactive) | > 100 µM (inactive) | – | > 100 µM (inactive) | > 100 µM (inactive) | 87.9 µM (inactive) | > 100 µM (inactive) | 57 µM (inactive) | –
C[N+](C)([O-])Cc1cccc(NC(=O)c2ccc(C(=O)Nc3cccc(C[N+](C)(C)[O-])c3)cc2)c1 | > 100 µM (inactive) | > 100 µM (inactive) | – | > 100 µM (inactive) | > 100 µM (inactive) | > 100 µM (inactive) | > 100 µM (inactive) | > 100 µM (inactive) | > 100 µM (inactive) | > 100 µM (inactive) | > 100 | > 100 µM (inactive) | > 100 µM (inactive) | > 100 µM (inactive) | > 100 µM (inactive) | > 100 µM (inactive) | > 100 µM (inactive) | > 100 µM (inactive) | > 100 µM (inactive) | > 100 µM (inactive)
Cc1cccc(NC(=O)CC(=O)N2N=C(N3c4ccccc4Sc4ccccc43)CC2c2ccccc2)c1 (stereo not given) | > 100 µM (inactive) | > 100 µM (inactive) | – | – | > 100 µM (inactive) | > 100 µM (inactive) | – | > 100 µM (inactive) | > 100 µM (inactive) | > 100 µM (inactive) | > 100 | > 100 µM (inactive) | > 100 µM (inactive) | > 100 µM (inactive) | > 100 µM (inactive) | > 100 µM (inactive) | > 100 µM (inactive) | > 100 µM (inactive) | > 100 µM (inactive) | > 100 µM (inactive)
CCOC(=O)c1[nH]c2cc(OC)c(OC)cc2c1CN(C)C | > 100 µM (inactive) | > 100 µM (inactive) | – | > 100 µM (inactive) | > 100 µM (inactive) | – | > 100 µM (inactive) | > 100 µM (inactive) | > 100 µM (inactive) | > 100 µM (inactive) | > 100 | > 100 µM (inactive) | > 100 µM (inactive) | – | > 100 µM (inactive) | > 100 µM (inactive) | > 100 µM (inactive) | > 100 µM (inactive) | > 100 µM (inactive) | –
C=CCn1c(-c2ccc(/N=N/Nc3ccc(-c4n[nH]c(=S)n4CC=C)cc3)cc2)n[nH]c1=S | 2.84 µM (inactive) | 4.36 µM (inactive) | – | 4.57 µM (inactive) | 11.7 µM (inactive) | 3.69 µM (inactive) | 3.4 µM (inactive) | – | 5.55 µM (inactive) | 1.83 µM (inactive) | 4.59 | – | 7.13 µM (inactive) | 3.65 µM (inactive) | 2.32 µM (inactive) | 8.41 µM (inactive) | 2.01 µM (inactive) | 3.34 µM (inactive) | 7.31 µM (inactive) | 1.11 µM (active)
Cc1cc(OCc2nnc3n2S(=O)(=O)c2ccccc2N3C)ccc1Cl | – | 18.6 µM (inactive) | – | 28.8 µM (inactive) | 10.4 µM (inactive) | 89.7 µM (inactive) | 33.7 µM (inactive) | 39.9 µM (inactive) | 33.1 µM (inactive) | 58.3 µM (inactive) | > 100 | 16.7 µM (inactive) | > 100 µM (inactive) | 56 µM (inactive) | 31.2 µM (inactive) | 11.8 µM (inactive) | 55 µM (inactive) | 22.9 µM (inactive) | 16.1 µM (inactive) | 18.5 µM (inactive)
CC(=O)c1ccc(NC(=O)C(=O)Nn2c(S)nc3ccccc3c2=O)cc1 | > 100 µM (inactive) | > 100 µM (inactive) | – | > 100 µM (inactive) | > 100 µM (inactive) | – | > 100 µM (inactive) | > 100 µM (inactive) | > 100 µM (inactive) | > 100 µM (inactive) | > 100 | > 100 µM (inactive) | > 100 µM (inactive) | – | > 100 µM (inactive) | > 100 µM (inactive) | > 100 µM (inactive) | > 100 µM (inactive) | > 100 µM (inactive) | –
